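Dose response: 5 concentrations. Exposure: 48 h. Format: 96-well plates. Endpoint: linear interpolation; highest concentration if not reached. GI50: concentration for 50% inhibition of growth. Definition used: TGI = concentration required for complete inhibition of growth.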
Key:
Assay in all cases: NCI anticancer screen, dose series, 48 h
HCT-116 colon = tested on: HCT-116 colon
HOP-62 NSCLC = tested on: HOP-62 NSCLC
SK-MEL-5 melanoma = tested on: SK-MEL-5 melanoma
HL-60(TB) leukemia = tested on: HL-60(TB) leukemia
HCC-2998 colon = tested on: HCC-2998 colon
MCF7 breast = tested on: MCF7 breast
OVCAR-4 ovarian = tested on: OVCAR-4 ovarian
IGROV1 ovarian = tested on: IGROV1 ovarian
MALME-3M melanoma = tested on: MALME-3M melanoma
NCI-H23 lung = tested on: NCI-H23 lung

SMILES | TGI (HCT-116 colon) | TGI (HOP-62 NSCLC) | TGI (SK-MEL-5 melanoma) | TGI (HL-60(TB) leukemia) | TGI (HCC-2998 colon) | TGI (MCF7 breast) | TGI (OVCAR-4 ovarian) | TGI (IGROV1 ovarian) | TGI (MALME-3M melanoma) | TGI (NCI-H23 lung) | GI50 (HCT-116 colon) | GI50 (HOP-62 NSCLC) | GI50 (SK-MEL-5 melanoma) | GI50 (HL-60(TB) leukemia) | GI50 (HCC-2998 colon) | GI50 (MCF7 breast) | GI50 (OVCAR-4 ovarian) | GI50 (IGROV1 ovarian) | GI50 (MALME-3M melanoma) | GI50 (NCI-H23 lung)
C[C@]12CC[C@H](O)CC1=CC[C@@H]1C2CC[C@]2(C)c3nn(-c4ccc(F)cc4)nc3CC12 (some centres undefined) | > 100 µM | > 100 µM | > 100 µM | > 100 µM | 72.7 µM | > 100 µM | > 100 µM | > 100 µM | > 100 µM | > 100 µM | – | – | – | – | – | – | – | – | – | –
Fc1ccc(Oc2nccc(-c3c(-c4ccc(F)cc4)ncn3C3CCNCC3)n2)cc1 | > 25 µM | > 25 µM | > 25 µM | > 25 µM | > 25 µM | > 25 µM | > 25 µM | > 25 µM | > 25 µM | – | > 25 µM | > 25 µM | > 25 µM | > 25 µM | > 25 µM | > 25 µM | > 25 µM | 19.2 µM | > 25 µM | –
CCC1=C[C@@H]2CN(C1)Cc1c([nH]c3ccccc13)[C@@](C(=O)OC)(c1cc3c(cc1OC)N(C=O)[C@H]1[C@@](O)(C(=O)OC)[C@H](OC(C)=O)[C@]4(CC)[C@@H]5C[C@@H]5CN5CC[C@]31[C@@H]54)C2 | – | > 6.25 µM | 0.0315 µM | < 0.000625 µM | > 6.25 µM | > 6.25 µM | > 6.25 µM | > 6.25 µM | – | > 6.25 µM | < 0.000625 µM | 0.00158 µM | 0.000921 µM | < 0.000625 µM | 0.00144 µM | < 0.000625 µM | 0.054 µM | 0.00261 µM | – | 0.00318 µM
CN(C)NC1=NS(=O)(=O)c2cc3c(cc2S1)N(N(C)C)C(=O)c1cc2c(cc1N(N(C)C)C3=O)SC(NN(C)C)=NS2(=O)=O | > 10 µM | > 10 µM | > 10 µM | > 10 µM | > 10 µM | > 10 µM | > 10 µM | > 10 µM | > 10 µM | > 10 µM | – | – | – | – | – | – | – | – | – | –
COc1c(C)c2c(c(O)c1C/C=C(\C)CCC(=O)OCCN1CCOCC1)C(=O)OC2 | > 100 µM | > 100 µM | > 100 µM | > 100 µM | > 100 µM | > 100 µM | > 76.7 µM | > 100 µM | > 100 µM | > 100 µM | 0.131 µM | 0.457 µM | 0.383 µM | 1.12 µM | 0.39 µM | 0.196 µM | 0.576 µM | 0.27 µM | 2.5 µM | 0.245 µM
O=C(Nc1ccc(-n2cc(-c3ccncc3)c(-c3ccc(Cl)c(O)c3)n2)cc1)Nc1cc(C(F)(F)F)cc(C(F)(F)F)c1 | 3.14 µM | 3.66 µM | 3.41 µM | 8.84 µM | 3.37 µM | 8.15 µM | 3.98 µM | 4.45 µM | – | 4.91 µM | 1.61 µM | 1.8 µM | 1.67 µM | 2.94 µM | 1.79 µM | 2.58 µM | 0.404 µM | 2.04 µM | – | 2.13 µM
COc1ccc(C2=NN(C(=O)COc3ccc(Cl)cc3)C(O)(c3cc(F)c(Cl)cc3Cl)C2)cc1OC (centres undefined) | 2.58 µM | 30.8 µM | 20.9 µM | 7.86 µM | 13.3 µM | 8.21 µM | 6.97 µM | 22.2 µM | 3.76 µM | 17.8 µM | 1.23 µM | 13.9 µM | 8.29 µM | 2.68 µM | 3.91 µM | 2.18 µM | 2.26 µM | 10.2 µM | 1.72 µM | 4.74 µM
COc1ccc2c(c1)nc(N)c1c3cc(OC)c(OC)cc3cn21 | 13.7 µM | 16.9 µM | 0.987 µM | 0.622 µM | 16.5 µM | 13.7 µM | 17.8 µM | 20.1 µM | 37.7 µM | 5.7 µM | < 0.01 µM | – | 0.0645 µM | 0.196 µM | 0.0434 µM | 0.148 µM | 0.238 µM | 0.249 µM | 9.39 µM | –
OC(C1=C/C(=C\c2ccncc2)c2ccccc21)c1ccncc1 (centres undefined) | 28.2 µM | 31.6 µM | 13 µM | 15.7 µM | 22.3 µM | 30.7 µM | > 57.6 µM | 52.4 µM | 38.3 µM | 39.2 µM | – | – | – | – | – | – | – | – | – | –
CCN1C(=O)N(CC)C2C1NN=c1s/c(=C3\C(=O)N(CC(C)C)c4ccccc43)c(=O)n12 (centres undefined) | > 100 µM | 34.8 µM | > 100 µM | 1.64 µM | > 100 µM | > 100 µM | > 100 µM | > 55.7 µM | > 77.7 µM | > 100 µM | 0.441 µM | 0.797 µM | 0.436 µM | 0.34 µM | 2.38 µM | 0.454 µM | 1.23 µM | 0.808 µM | 0.885 µM | 2.19 µM
Cc1cccc(C)c1NC(=O)/C(Cl)=C(/Cl)C(=O)O | 36.4 µM | > 81.7 µM | 34.5 µM | > 100 µM | 32.2 µM | 46.3 µM | 33.5 µM | 40.8 µM | 29.7 µM | 38.6 µM | – | – | – | – | – | – | – | – | – | –
COc1cc(NC(=O)c2cc(OC)c3ccn(C)c3c2)cc2c1C[C@]1(C)CC[C@@H](O)C(C)(C)[C@H]1O2 | > 100 µM | > 100 µM | 9.08 µM | 14.7 µM | > 100 µM | 65.9 µM | > 100 µM | > 100 µM | 70.5 µM | > 100 µM | 4.02 µM | 8.78 µM | 2.87 µM | 3.49 µM | 13.4 µM | 4.68 µM | 37.6 µM | 21.2 µM | 6.22 µM | 17.3 µM
CCN(CC)CCOc1ccc(Nc2ncc3cc(-c4ccc(O)cc4)c(=O)n(C)c3n2)cc1 | – | 23.7 µM | 31 µM | 40.3 µM | 30.5 µM | 2.78 µM | 33.7 µM | 15.9 µM | 2.44 µM | 36.2 µM | – | 2.78 µM | 14.8 µM | 14.6 µM | 15.4 µM | 1.07 µM | 16.7 µM | 0.0803 µM | 0.734 µM | 12.7 µM
C/C=C(\C)C(=O)N[C@H]1[C@@H](OC(C)=O)C[C@]2(C)C3CC[C@@]4(C)C(CC[C@@H]4C(C)N(C)C)C3CCC2[C@H]1O (some centres undefined) | 4.34 µM | 9.29 µM | 3.77 µM | 13.6 µM | 21.7 µM | 18.1 µM | 31.5 µM | 16.8 µM | 6.43 µM | 28.2 µM | 1.88 µM | 3.42 µM | 1.6 µM | 4.53 µM | 7.15 µM | 3.71 µM | 5.29 µM | 5.88 µM | 2.03 µM | 11.7 µM
Cn1ccc2c(NCCN)c3c(c(NCCN)c21)C(=O)c1ccccc1C3=O | 4.41 µM | 2.72 µM | 4.99 µM | 64.1 µM | 3.99 µM | 7.22 µM | 30.8 µM | > 31.8 µM | 15.2 µM | 4.07 µM | 0.398 µM | 0.35 µM | 2.19 µM | 2.91 µM | 1.64 µM | 0.442 µM | 9.46 µM | 0.824 µM | 3.67 µM | 1.68 µM
COC(=O)COc1ccc(/C=C2\N=C(c3ccccc3)N(c3cc(C(F)(F)F)ccc3Cl)C2=O)cc1 | > 100 µM | > 100 µM | > 100 µM | 63.4 µM | > 100 µM | > 100 µM | > 100 µM | > 100 µM | > 100 µM | > 100 µM | 38.4 µM | 64.9 µM | 46.1 µM | 27.3 µM | 64 µM | 59.8 µM | 54.8 µM | 29.1 µM | 54.1 µM | > 100 µM
Nc1ccc(C(=O)c2ccc(N)c(Br)c2)cc1Br | 11.6 µM | 22.7 µM | 17.9 µM | 2.8 µM | 4.65 µM | > 100 µM | > 100 µM | 18.4 µM | – | > 100 µM | 0.461 µM | 0.538 µM | 0.372 µM | 0.326 µM | 0.381 µM | 0.428 µM | 6.24 µM | 0.474 µM | – | 1.16 µM
O=C1CCCCCCCC/C=C/CCC(c2ccco2)O1 (centres undefined) | > 100 µM | > 100 µM | > 100 µM | 38.7 µM | > 100 µM | > 100 µM | – | > 100 µM | 62.6 µM | > 100 µM | 31.2 µM | 41.2 µM | 44 µM | 14.5 µM | > 100 µM | 15.8 µM | – | 51.2 µM | 6.7 µM | > 100 µM
CC(=O)Nc1nc(SCc2ccccc2)c2ncn(C(C)=O)c2n1 | > 100 µM | > 100 µM | > 100 µM | > 100 µM | > 100 µM | > 100 µM | – | > 100 µM | > 100 µM | > 100 µM | > 100 µM | 62.7 µM | 45.3 µM | 63 µM | > 100 µM | 91.8 µM | – | 79 µM | > 100 µM | > 100 µM
CC(C)(C)C(=O)Nc1ccccc1I(=O)=O | – | – | > 100 µM | > 100 µM | > 100 µM | > 100 µM | > 100 µM | > 100 µM | > 100 µM | > 100 µM | – | – | > 100 µM | > 100 µM | > 100 µM | > 100 µM | > 100 µM | > 100 µM | > 100 µM | > 100 µM
